Experimental data published in US11474097B2, “Method of identifying a compound which affects the multienzyme metabolic assembly of glucose metabolism and its association with cell cycle progression in cancer cells” (UNIVERSITY OF MARYLAND, BALTIMORE COUNTY, priority 2018, dated 2022).
Where a name gives a salt, the structure may show the parent alone. Each block holds one compound with its values, some of them ahead of it.

Legend:
Assay type in all cases: cell-based, human
[1] = tested on: PFK1-mEGFP clustering in HeLa-T-PFK1G cells; experiment: qHTS PFK1-mEGFP clustering assay with the LOKI library; conditions: for Curve class: LOKI screen; for PFK1-mEGFP clustering when the assay was repeated: repeat of the LOKI assay, FIGS. 8A-8C
Protocol: HeLa-T-PFK1G cells were plated in 1536-well black, clear bottom, low base microwell plates (Aurora Microplates, Inc.) at a density of 400 cells/well in DMEM supplemented with 10% dialyzed FBS, 1% Pen-Strep, and 1 μg/mL doxycycline. The cells were incubated at 37° C., 5% CO2, and 95% humidity for 16 hours. A qHTS assay was scaled to 4 μL volumes in 1536-well format in a semi-automated manner.
Second, the qHTS assay was carried out with the LOKI library (10 mM, 11-point 1:3 intra-plate titration). Again, 23 nL of compounds were transferred by a pintool (Kalypsys) in the final concentration range of 974 pM to 57.5 μM along with DMSO. […] The cells were then incubated overnight with small molecules. Approximately 24 hours later, the cells were fixed with 3.5% paraformaldehyde and nuclei were stained using a 1:1000 dilution of Hoechst dye for ˜20 minutes. Cells were washed and imaged with an INCell Analyzer 2000 or INCell Analyzer 2200 (GE Healthcare Life Sciences) as described above.
Images were processed in the GE Workstation software and analyzed with a multitarget analysis of fluorescence. Top-hat segmentation of the DAPI channel was used to identify nuclei with a minimum area of 100 μm^2 and sensitivity of 40 settings. Multiscale top-hat segmentation of the FITC channel was used to identify cells with a characteristic area of 200 μm^2 and sensitivity of 70 settings. This allowed for the identification of fluorescent cells from the background or dead cells. Following cell segmentation, the same FITC channel was analyzed with multiscale top-hat segmentation to identify PFK1-mEGFP clusters with a size range of 0.2-2 μm^2, number scales of 1, process parameters of 1 pixel, sensitivity of 40, and inclusions in the cytoplasm. A filter of object area, that is, the area of PFK1-mEGFP clusters, below 30 μm^2 and an advanced sensitivity range of 1.5, was also applied. A decision tree thresholding was developed to identify cells with PFK1 clusters with three nodes. The start node required a cell intensity above 110 GL, the second node required a PFK1 cluster count above 1, and the third node required the total area of the PFK1 cluster above 5 μm^2. Ultimately, this allowed for the identification of cluster-positive cells over non-clustering cells. The total number of cells with a total area of PFK1 clusters above 5 μm^2 (most stringent parameter) and the total number of cells with any PFK1 clusters were calculated with the above algorithm and normalized by plate to the 57.5 μM kenpaullone intra-plate control as previously described (Inglese et al., 2006). Assay effectiveness including S:N (the signal to noise ratio) and Z′ (the index of assay quality (Zhang et al., 1999)) were calculated for both parameters using the same respective control. Both parameters were normalized to the average signal of DMSO (vehicle)-treated wells as a zero percent neutral control and the average signal of 57.5 μM kenpaullone-treated wells as maximum PFK1-mEGFP clustering. Cell count based on the number of nuclei was used as a parameter of cytotoxicity, which was also normalized to the average signal of DMSO-treated wells as a zero percent neutral control and the average signal of 57.5 μM […]-treated wells as maximum PFK1-mEGFP clustering. The respective normalized data from each assay plate was corrected using DMSO only treated assay plates at the beginning and end of each library screen. In-house software (http://ncgc.nih.gov/pub/openhts/curvefit/) was used to fit the resulting intra-plate titration data to the standard Hill equation and concentration-response curves were classified by a titration curve as previously described (Southall et al.). Curve fits assignments of class 1.1, 1.2, 2.1 and 2.2s were considered active (i.e., promotion of the PFK1-mEGFP clusters) and visually confirmed.

[2] = tested on: PFK1-mEGFP clustering in HeLa-T-PFK1G cells; experiment: High-resolution fluorescence microscopy of PFK1-mEGFP clustering
Protocol: A day before imaging, HeLa-T-PFK1G cells in RPMI1640 supplemented with 10% dialyzed FBS, 200 ug/ml G418 sulfate and 100 ug/ml hygromycin B, were plated in the presence of 1 μg/mL doxycycline to induce the expression of PFK1-mEGFP. On the day of imaging, the cells were washed three times with an imaging solution (20 mM HEPES (pH 7.4), 135 mM NaCl, 5 mM KCl, 1 mM MgCl2, 1.8 mM CaCl2) and 5.6 mM glucose) and allowed to adjust to ambient temperature for ˜45-60 minutes prior to small molecule treatments. Meanwhile, transiently transfected HeLa cells were imaged after being washed with the imaging solution after ˜24 hours following transfection. The cells were then treated with small molecules and incubated at 37° C. for the given time. All samples were imaged at ambient temperature (˜25° C.) with a 60×1.45 NA objective lens (Nikon CFI Plan Apo TIRF) using a Photometrics CoolSnap EZ monochrome CCD camera on a Nikon Eclipse Ti-inverted C2 confocal microscope.
Epifluorescence imaging was carried out using a set of Z488/10-FC cleanup, HC TIRF Dichroic and 525/50-HC emission filter from Chroma Technology. Images were acquired using NIS Elements (Nikon) and images were analyzed using an ImageJ freeware (National Institutes of Health).
Next, the 8 compounds were assessed for their ability to induce PFK1-mEGFP clustering under high-resolution fluorescence microscopy. HeLa-T-PFK1G cells were treated with 57.5 μM for 5 hours (FIGS. 2A and 2B) and 10 μM for 25 hours (FIGS. 2C and 2D). […] Quantitatively, SU9516 induced medium- and large-sized PFK1-mEGFP clustering in 26.6±12% of the cells at 57.5 μM for 5 hours, and in 40.0±16% of cells at 10 μM for 25 hours (see, e.g., FIGS. 2B and 2D, respectively).

[3] = tested on: cell cycle progression of HeLa-T-PFK1G cells; experiment: Cell cycle analysis by propidium iodide staining and flow cytometry; conditions: 10 μM, 24 hours
Protocol: FIG. 7A illustrates the effect of SU9516 on the cell cycle progression of HeLa-T-PFK1G cells. Cells received no small molecules or were treated with DMSO or 10 uM SU9516 and incubated for 24 hours. Then, cells were assessed for cell cycle progression by propidium iodide staining. The changes of the average percentage of cells in each cell cycle following incubation with an indicated compound are shown. Error bars represent the standard deviations of at least three trials and statistical significance was determined using student's two-tailed t test. HeLa-T-PFK1G cells were plated in 6-well plates for a confluency of 70-90% in RPMI1640 supplemented with 10% dialyzed FBS in the presence of 1 ug/mL doxycycline. The following day, the cells were treated with SU9516 or DMSO for 24 hours. The cells were then harvested and analyzed for the cell cycle progression as previously described (Crowley et al., 2016). Briefly, hundreds of thousands of cells were removed from 6-well plates using trypsin, washed with 1×PBS (pH 7.4), resuspended in ice-cold PBS and fixed with ice-cold methanol for 20 minutes at 4° C. The cells were then washed and resuspended in the cell cycle buffer, which contains 30 ug/mL propidium iodide and 100 μg/mL RNase A (Thermo Cat # EN0531) in 1×PBS (pH 7.4). After being incubated for at least 45 minutes, flow cytometry was performed with a CyAn ADP (Beckman Coulter) running Summit V 4.00, equipped with a 488 nm laser line and 530/40 and 613/20 emission filters. Using FlowJo (FlowJo, LLC), cell populations were gated based on the expression of PFK1-mEGFP in cells as well as their size and granularity. The cell cycle progression was then assessed by the Dean-Jett-Fox analysis using Cell Cycle platform available in FlowJo (Fox, 1980).

[4] = tested on: transiently expressed PFK1-mEGFP in HeLa cells; experiment: PFK1-mEGFP clustering in transiently transfected wild-type HeLa cells; conditions: 57.5 μM, 5 hours
Protocol: A day before transient transfection, wild-type HeLa cells were plated on either glass-bottomed 35 mm petri dishes (MatTek) or 8-well chambers (LabTek) in RPMI 1640 supplemented with 10% dialyzed FBS without antibiotics. The following day, HeLa cells were transfected with PFK1-mEGFP using Lipofectamine 2000 (Invitrogen Cat#11668019) in Opti-MEM I (ThermoFisher Cat#11058-021) and allowed to incubate in a HeraCell CO2 incubator (37° C., 5% CO2, and 95% humidity). Approximately 5 hours later, the medium was exchanged for fresh growth medium and incubated overnight in the CO2 incubator.
A day before imaging, HeLa-T-PFK1G cells in RPMI1640 supplemented with 10% dialyzed FBS, 200 ug/ml G418 sulfate and 100 ug/ml hygromycin B, were plated in the presence of 1 μg/mL doxycycline to induce the expression of PFK1-mEGFP. On the day of imaging, the cells were washed three times with an imaging solution (20 mM HEPES (pH 7.4), 135 mM NaCl, 5 mM KCl, 1 mM MgCl2, 1.8 mM CaCl2) and 5.6 mM glucose) and allowed to adjust to ambient temperature for ˜45-60 minutes prior to small molecule treatments. […]
As a control, PFK1-mEGFP was transiently transfected into wild-type HeLa cells and treated with SU9516. After 5 hours of treatment with 57.5 μM of SU9516, the promotion of medium- and large-sized clusters from small-sized clusters at single-cell levels were monitored (FIG. 4).

[5] = tested on: PFK1-mEGFP clustering in HeLa-T-PFK1G cells; experiment: Resveratrol-induced clustering of PFK1-mEGFP (positive control, assay development); conditions: 200-250 μM, three hours
Protocol: Cells were treated with 200-250 μM resveratrol for three hours. Scale bar, 10 μm.

[6] = Table 5, CDK inhibitors that did not induce PFK1-mEGFP clustering
[7] = Table 4, inhibitors of the off-targets of SU9516
[8] = 10 μM, 24 hr, HeLa-T-PFK1G cells

SMILES: CN1CCC(c2c(O)cc(O)c3c(=O)cc(-c4ccccc4Cl)oc23)C(O)C1 (stereo in doubt) [NCGC00250401-01]
- Curve class [1, 6]: 4

SMILES: Cn1cnc2c(NCc3ccccc3)nc(NCCO)nc21 [NCGC00015763-01]
- Curve class [1, 6]: 4

SMILES: O=C(NC1CCNCC1)c1[nH]ncc1NC(=O)c1c(Cl)cccc1Cl [NCGC00263091-01]
- Curve class [1, 6]: −1.3

SMILES: CC(=O)c1c(C)c2cnc(Nc3ccc(N4CCNCC4)cn3)nc2n(C2CCCC2)c1=O [NCGC00263129-01, Palbociclib]
- Curve class [1, 7]: 2.1

SMILES: Cn1c(=O)c(F)c(Nc2ccc(I)cc2F)c2c(=O)n(C[C@@H](O)CO)cnc21 [NCGC00263187-01]
- Curve class [1, 6]: −2.4

SMILES: CCc1ccc(NC(=O)c2[nH]c(C)c(C(C)=O)c2C)cc1S(=O)(=O)Nc1cccc(C#N)c1 [NCGC00345632-01]
- Curve class [1, 6]: −2.1

SMILES: CCS(=O)(=O)Nc1ccc2c(c1)/C(=C(/Nc1ccc(CN3CCCCC3)cc1)c1ccccc1)C(=O)N2 [NCGC00346542-01, Hesperadin]
- Curve class [1, 7]: 2.1

SMILES: CC(C)c1cnn2c(NCc3ccccc3)cc(NCCCCCCN)nc12 [NCGC00346553-01, BS-181]
- Curve class [1, 7]: 2.1
- PFK1-mEGFP clustering when the assay was repeated [1]: did not promote PFK1-mEGFP clustering

SMILES: CC(=O)NCC(=O)N1[C@H]2CC[C@H]1c1cc(Nc3ncc(C(F)(F)F)c(NC4CCC4)n3)ccc12 [NCGC00346652-01, PF-03814735]
- Curve class [1, 7]: 2.1
- PFK1-mEGFP clustering when the assay was repeated [1]: induced PFK1-mEGFP clustering

SMILES: CC(O)(C#Cc1ccc2c(c1)N(c1nc(N)ncc1Cl)CC2)c1nccs1 (stereo not drawn) [NCGC00346747-02]
- Curve class ([1]; PFK1-mEGFP clustering vs log compound concentration, Table 3 hits): 2.1

SMILES: CC(=O)OC1C(C)OC(Oc2c(-c3ccc(O)cc3)oc3cc(O)cc(O)c3c2=O)C(O)C1OC(C)=O (stereo not drawn) [NCGC00346893-01, SL-0101-1]
- Curve class [1, 7]: 2.1
- Curve class [1, 6]: 4
- PFK1-mEGFP clustering when the assay was repeated [1]: did not promote PFK1-mEGFP clustering

- cell morphology observed [2, 8]: vacuole-type artifact
SMILES: C=CCc1cccc(/C=N/NC(=O)CN2CCN(Cc3ccccc3)CC2)c1O [PAC-1]

- EC50 ([2]; Homo sapiens, titration for 25 hours, HeLa-T-PFK1G cells, read-out: EC50 with respect to PFK1-mEGFP clustering): 6.8 µM
SMILES: COc1ccc2c(c1)/C(=C/c1cnc[nH]1)C(=O)N2 [SU9516, 3-[1-(3H-Imidazol-4-yl)-meth-(Z)-ylidene]-5-methoxy-1,3-dihydro-indol-2-one]
- population of cells in the G2 phase ([3]; 18.9%±[…] without compound): 45.6%±1.9%
- population of cells in the S phase ([3]; 21.5%±7.2% without compound): 4.2%±2.4%
- population of cells in the G1 phase ([3]; 54.7%±5.7% without compound, no significant change): 48.4%±2.7%
- percent of cells with medium- and large-sized PFK1-mEGFP clustering ([2]; 10 μM for 25 hours): 40.0±16%
- percent of cells with medium- and large-sized PFK1-mEGFP clustering ([2]; 57.5 μM for 5 hours): 26.6±12%
- ability to induce PFK1-mEGFP clustering under high-resolution fluorescence microscopy ([2]; 57.5 μM for 5 hours and 10 μM for 25 hours): capable of inducing PFK1-mEGFP clusters
- promotion of medium- and large-sized PFK1-mEGFP clusters [4]: capable of promoting PFK1-mEGFP clusters

- cell morphology observed [2, 8]: vacuole-type artifact
SMILES: Clc1ccc(C(c2ccc(Cl)cc2)n2cc[n+](CC(OCc3ccc(Cl)cc3Cl)c3ccc(Cl)cc3Cl)c2)cc1 (stereo not drawn) [calmidazolium chloride, Calmidazolium chloride]

SMILES: CN1CCC[C@@H]1CCO[C@](C)(c1ccccc1)c1ccc(Cl)cc1 [clemastine fumarate, Clemastine fumarate]
- cell morphology observed ([2]; 57.5 μM, 6 hr, HeLa-T-PFK1G cells): protein localization and cell death

SMILES: Oc1ccc(C=Cc2cc(O)cc(O)c2)cc1 [resveratrol]
- percent of cells exhibiting medium- or large-sized clusters in the cytoplasm [5]: 80-90%
